Experimental data taken from ChEMBL document CHEMBL4507300 (2021).

Key:
Details in all cases: Compound concentration 1000.0 nM
[1] = target: Phosphatidylinositol 4-phosphate 5-kinase type-1 alpha (Homo sapiens) (UniProt Q99755)
[2] = target: Peripheral plasma membrane protein CASK (Homo sapiens) (UniProt O14936)
[3] = target: Serine/threonine-protein kinase PAK 5 (Homo sapiens) (UniProt Q9P286)
[4] = system: Proto-oncogene tyrosine-protein kinase receptor Ret (Homo sapiens), P07949 [V804M]
[5] = target: Calcium/calmodulin-dependent protein kinase type IV (Homo sapiens) (UniProt Q16566)
Sequence of Calcium/calmodulin-dependent protein kinase type IV (Homo sapiens) (Q16566 whole entry, canonical isoform): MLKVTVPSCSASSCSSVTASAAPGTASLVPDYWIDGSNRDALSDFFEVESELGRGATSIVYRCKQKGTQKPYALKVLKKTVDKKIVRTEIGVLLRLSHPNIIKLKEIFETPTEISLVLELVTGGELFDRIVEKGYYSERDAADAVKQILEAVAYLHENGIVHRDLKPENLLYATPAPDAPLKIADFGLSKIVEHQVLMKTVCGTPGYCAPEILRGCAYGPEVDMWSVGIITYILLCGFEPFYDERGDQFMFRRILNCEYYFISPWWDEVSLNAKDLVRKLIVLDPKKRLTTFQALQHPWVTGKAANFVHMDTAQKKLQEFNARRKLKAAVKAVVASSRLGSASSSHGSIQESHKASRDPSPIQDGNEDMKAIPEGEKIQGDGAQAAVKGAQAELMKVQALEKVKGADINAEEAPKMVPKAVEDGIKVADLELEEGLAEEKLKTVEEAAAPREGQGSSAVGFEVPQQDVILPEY

[6] = system: Phosphatidylinositol 4,5-bisphosphate 3-kinase catalytic subunit alpha isoform (Homo sapiens), P42336 [Q546K]
Sequence of Phosphatidylinositol 4,5-bisphosphate 3-kinase catalytic subunit alpha isoform (Homo sapiens), P42336 [Q546K] (P42336 whole entry Q546K, canonical isoform): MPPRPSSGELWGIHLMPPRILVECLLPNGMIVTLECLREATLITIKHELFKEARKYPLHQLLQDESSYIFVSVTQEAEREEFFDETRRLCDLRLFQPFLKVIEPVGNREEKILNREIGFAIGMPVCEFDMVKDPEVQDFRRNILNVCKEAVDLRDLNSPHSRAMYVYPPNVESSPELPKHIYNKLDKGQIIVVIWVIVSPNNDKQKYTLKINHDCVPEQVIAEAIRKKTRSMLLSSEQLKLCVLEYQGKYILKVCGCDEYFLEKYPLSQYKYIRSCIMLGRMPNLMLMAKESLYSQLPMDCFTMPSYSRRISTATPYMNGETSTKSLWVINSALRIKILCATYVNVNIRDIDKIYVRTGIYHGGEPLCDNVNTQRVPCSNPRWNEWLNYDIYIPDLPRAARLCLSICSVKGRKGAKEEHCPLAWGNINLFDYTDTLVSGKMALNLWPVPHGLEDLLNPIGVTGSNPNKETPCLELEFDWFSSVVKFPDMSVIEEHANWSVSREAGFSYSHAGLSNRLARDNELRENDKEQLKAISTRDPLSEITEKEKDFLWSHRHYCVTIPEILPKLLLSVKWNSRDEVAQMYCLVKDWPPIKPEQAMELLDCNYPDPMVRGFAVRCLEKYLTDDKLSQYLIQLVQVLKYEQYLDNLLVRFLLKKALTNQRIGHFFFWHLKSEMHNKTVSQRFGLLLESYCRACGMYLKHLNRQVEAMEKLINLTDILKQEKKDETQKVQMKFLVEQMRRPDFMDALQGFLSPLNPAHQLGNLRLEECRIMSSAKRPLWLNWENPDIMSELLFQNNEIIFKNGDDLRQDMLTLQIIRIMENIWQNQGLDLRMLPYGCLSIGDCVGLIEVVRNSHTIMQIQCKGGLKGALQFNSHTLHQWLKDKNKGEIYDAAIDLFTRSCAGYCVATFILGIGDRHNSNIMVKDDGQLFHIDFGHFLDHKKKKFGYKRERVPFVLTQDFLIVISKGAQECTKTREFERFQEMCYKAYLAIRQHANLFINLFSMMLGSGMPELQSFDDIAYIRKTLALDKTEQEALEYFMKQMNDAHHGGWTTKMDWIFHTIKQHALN

[7] = target: Mitogen-activated protein kinase 10 (Homo sapiens) (UniProt P53779)
Sequence of Mitogen-activated protein kinase 10 (Homo sapiens) (P53779 whole entry, canonical isoform): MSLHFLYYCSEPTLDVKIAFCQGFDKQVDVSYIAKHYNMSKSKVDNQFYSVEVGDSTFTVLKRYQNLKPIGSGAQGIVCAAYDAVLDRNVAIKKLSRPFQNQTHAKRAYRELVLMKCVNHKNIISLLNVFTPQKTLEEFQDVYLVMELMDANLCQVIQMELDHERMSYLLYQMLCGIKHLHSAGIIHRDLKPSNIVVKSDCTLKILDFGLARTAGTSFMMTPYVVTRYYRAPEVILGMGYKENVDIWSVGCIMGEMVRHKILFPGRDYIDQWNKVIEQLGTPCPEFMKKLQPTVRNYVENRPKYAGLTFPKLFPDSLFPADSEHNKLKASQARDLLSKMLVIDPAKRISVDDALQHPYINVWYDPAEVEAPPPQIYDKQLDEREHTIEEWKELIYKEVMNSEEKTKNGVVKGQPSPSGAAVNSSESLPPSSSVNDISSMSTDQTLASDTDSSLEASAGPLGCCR

[8] = system: Phosphatidylinositol 4,5-bisphosphate 3-kinase catalytic subunit alpha isoform (Homo sapiens), P42336 [C420R]
Sequence of Phosphatidylinositol 4,5-bisphosphate 3-kinase catalytic subunit alpha isoform (Homo sapiens), P42336 [C420R] (P42336 whole entry C420R, canonical isoform): as the sequence (P42336 whole entry Q546K, canonical isoform) above, with C420R, K546Q counted along it

Measured: residual activity

Sequence of Proto-oncogene tyrosine-protein kinase receptor Ret (Homo sapiens), P07949 [V804M] (P07949 whole entry V804M): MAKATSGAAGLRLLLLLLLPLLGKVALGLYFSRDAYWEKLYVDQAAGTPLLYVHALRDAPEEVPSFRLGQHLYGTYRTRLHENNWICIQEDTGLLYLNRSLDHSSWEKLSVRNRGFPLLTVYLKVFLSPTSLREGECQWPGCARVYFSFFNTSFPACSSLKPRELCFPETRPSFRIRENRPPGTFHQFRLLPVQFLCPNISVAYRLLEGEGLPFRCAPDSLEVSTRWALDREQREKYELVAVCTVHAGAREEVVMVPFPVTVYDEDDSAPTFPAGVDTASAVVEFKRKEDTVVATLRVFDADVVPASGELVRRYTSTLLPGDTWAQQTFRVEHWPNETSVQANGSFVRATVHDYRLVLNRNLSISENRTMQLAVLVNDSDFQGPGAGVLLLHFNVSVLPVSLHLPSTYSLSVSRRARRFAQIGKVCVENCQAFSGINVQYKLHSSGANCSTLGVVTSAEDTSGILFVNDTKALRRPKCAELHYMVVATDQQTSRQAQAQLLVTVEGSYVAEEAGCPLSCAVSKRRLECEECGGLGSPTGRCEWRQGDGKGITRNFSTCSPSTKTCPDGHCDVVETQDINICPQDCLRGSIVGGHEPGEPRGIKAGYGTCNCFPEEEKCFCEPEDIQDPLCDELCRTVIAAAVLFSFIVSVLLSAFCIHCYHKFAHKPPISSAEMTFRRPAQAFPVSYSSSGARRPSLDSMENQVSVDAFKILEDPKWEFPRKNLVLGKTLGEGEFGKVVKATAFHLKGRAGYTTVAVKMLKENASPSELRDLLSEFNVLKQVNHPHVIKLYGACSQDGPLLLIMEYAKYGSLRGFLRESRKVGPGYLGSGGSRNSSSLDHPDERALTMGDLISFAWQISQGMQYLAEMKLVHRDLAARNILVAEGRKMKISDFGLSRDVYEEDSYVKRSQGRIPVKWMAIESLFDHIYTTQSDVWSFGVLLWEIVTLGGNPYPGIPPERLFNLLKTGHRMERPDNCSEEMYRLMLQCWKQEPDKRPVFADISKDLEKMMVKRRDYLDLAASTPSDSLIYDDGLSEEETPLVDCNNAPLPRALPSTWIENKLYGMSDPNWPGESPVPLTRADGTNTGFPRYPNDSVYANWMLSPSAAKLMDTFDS
Sequence of Serine/threonine-protein kinase PAK 5 (Homo sapiens) (Q9P286 whole entry, looked up): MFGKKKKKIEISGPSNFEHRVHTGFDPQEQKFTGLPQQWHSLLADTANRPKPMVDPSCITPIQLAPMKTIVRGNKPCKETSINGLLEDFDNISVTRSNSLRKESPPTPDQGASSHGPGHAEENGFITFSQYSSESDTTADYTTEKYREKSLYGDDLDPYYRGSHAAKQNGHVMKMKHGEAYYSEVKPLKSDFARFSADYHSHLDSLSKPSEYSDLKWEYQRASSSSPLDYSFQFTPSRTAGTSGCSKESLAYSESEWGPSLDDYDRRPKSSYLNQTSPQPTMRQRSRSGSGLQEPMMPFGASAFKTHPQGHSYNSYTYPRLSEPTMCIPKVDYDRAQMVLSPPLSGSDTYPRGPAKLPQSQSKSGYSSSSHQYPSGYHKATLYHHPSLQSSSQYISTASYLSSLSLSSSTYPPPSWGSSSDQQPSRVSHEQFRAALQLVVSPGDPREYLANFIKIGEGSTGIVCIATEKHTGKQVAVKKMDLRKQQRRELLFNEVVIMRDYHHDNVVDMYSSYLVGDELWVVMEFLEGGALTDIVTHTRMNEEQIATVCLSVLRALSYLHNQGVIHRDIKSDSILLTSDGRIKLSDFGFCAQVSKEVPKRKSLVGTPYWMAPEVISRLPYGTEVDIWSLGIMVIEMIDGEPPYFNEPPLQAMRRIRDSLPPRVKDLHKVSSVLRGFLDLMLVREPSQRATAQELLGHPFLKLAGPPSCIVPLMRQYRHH
Sequence of Peripheral plasma membrane protein CASK (Homo sapiens) (O14936 whole entry): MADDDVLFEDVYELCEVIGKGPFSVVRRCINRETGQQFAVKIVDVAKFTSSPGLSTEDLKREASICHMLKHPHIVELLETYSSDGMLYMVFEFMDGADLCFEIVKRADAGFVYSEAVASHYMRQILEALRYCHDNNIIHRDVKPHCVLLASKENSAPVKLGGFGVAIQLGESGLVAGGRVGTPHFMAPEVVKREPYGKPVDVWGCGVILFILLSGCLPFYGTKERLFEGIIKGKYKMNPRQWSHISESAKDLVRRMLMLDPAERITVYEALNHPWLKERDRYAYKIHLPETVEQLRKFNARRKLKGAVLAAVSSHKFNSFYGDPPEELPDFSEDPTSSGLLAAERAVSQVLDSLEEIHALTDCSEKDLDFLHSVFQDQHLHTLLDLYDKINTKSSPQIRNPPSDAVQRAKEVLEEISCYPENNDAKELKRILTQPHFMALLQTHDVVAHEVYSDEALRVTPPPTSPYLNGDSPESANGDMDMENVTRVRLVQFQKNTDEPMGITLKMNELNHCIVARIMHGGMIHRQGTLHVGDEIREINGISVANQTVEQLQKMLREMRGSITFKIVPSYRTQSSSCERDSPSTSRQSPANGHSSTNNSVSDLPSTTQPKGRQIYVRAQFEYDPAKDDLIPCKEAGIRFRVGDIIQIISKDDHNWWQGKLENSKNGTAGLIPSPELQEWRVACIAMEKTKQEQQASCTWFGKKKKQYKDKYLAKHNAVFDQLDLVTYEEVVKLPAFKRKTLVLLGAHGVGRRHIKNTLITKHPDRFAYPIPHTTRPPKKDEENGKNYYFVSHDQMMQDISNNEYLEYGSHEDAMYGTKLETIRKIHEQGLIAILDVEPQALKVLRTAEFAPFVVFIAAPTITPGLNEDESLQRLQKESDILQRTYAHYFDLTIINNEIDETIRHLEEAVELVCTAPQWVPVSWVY

COc1cccc(CNC(=O)c2nc3scc(COCc4ccc(C(=O)O)cc4)c3c(=O)[nH]2)c1 [T-26c]
inactive: [1] 100% | [2] 67.3% | [3] 87.4% | [4] 95.3% | [5] 100% | [6] 70.4% | [7] 76.6% | [8] 100%
